The NIST ThermoML archive (doi:10.1021/je800110r)

Settings: 323.14 K, Liquid, Vibrating tube method

CCCCCCCCCC [decane]
Settings | mass density [kg/m3]
6233 kPa | 712.5
6244 kPa | 712.5
6414 kPa | 712.6
6459 kPa | 712.7
6531 kPa | 712.7
6557 kPa | 712.8
6576 kPa | 712.8
6597 kPa | 712.9
6619 kPa | 712.7
6725 kPa | 712.9
6747 kPa | 713
6764 kPa | 712.9
6781 kPa | 713.1
6809 kPa | 713
6826 kPa | 713
6855 kPa | 713
6870 kPa | 713
6893 kPa | 713.1
7285 kPa | 713.4
7382 kPa | 713.6
7397 kPa | 713.5
7411 kPa | 713.6
7428 kPa | 713.5
7445 kPa | 713.5
7465 kPa | 713.7
7482 kPa | 713.5
7509 kPa | 713.6
7525 kPa | 713.5
7542 kPa | 713.8
7557 kPa | 713.7
7580 kPa | 713.6
7601 kPa | 713.7
7618 kPa | 713.7
7634 kPa | 713.7
7652 kPa | 713.7
7670 kPa | 713.8
7683 kPa | 713.8
7696 kPa | 713.7
7715 kPa | 713.7
7737 kPa | 713.8
7758 kPa | 713.9
7774 kPa | 713.9
7790 kPa | 713.8
7809 kPa | 713.9
7828 kPa | 713.9
7850 kPa | 714
7869 kPa | 714
7894 kPa | 713.9
7916 kPa | 713.9
7935 kPa | 714.1
7956 kPa | 714
7977 kPa | 714.1
7997 kPa | 714.1
8016 kPa | 714
8033 kPa | 714.1
8054 kPa | 714.1
8074 kPa | 714.1
8097 kPa | 714.1
8121 kPa | 714.2
8138 kPa | 714.2
8158 kPa | 714.1
8179 kPa | 714.2
8197 kPa | 714.3
8218 kPa | 714.3
8245 kPa | 714.3
8263 kPa | 714.3
8284 kPa | 714.3
8306 kPa | 714.4
8333 kPa | 714.4
8348 kPa | 714.4
8376 kPa | 714.5
8451 kPa | 714.3
8476 kPa | 714.5
8495 kPa | 714.5
8518 kPa | 714.6
8543 kPa | 714.5
8582 kPa | 714.5
8625 kPa | 714.6
8654 kPa | 714.7
8677 kPa | 714.6
8707 kPa | 714.7
8738 kPa | 714.7
8762 kPa | 714.6
8789 kPa | 714.7
8813 kPa | 714.7
8834 kPa | 714.8
8855 kPa | 714.8
8876 kPa | 714.7
8907 kPa | 714.8
8932 kPa | 714.8
8957 kPa | 714.9
8990 kPa | 714.8
9031 kPa | 715
9048 kPa | 715
9072 kPa | 715.1
9095 kPa | 715
9118 kPa | 715.1
9139 kPa | 715
9160 kPa | 715.1
9185 kPa | 715.1
9212 kPa | 715
9231 kPa | 715
9255 kPa | 715.2
9277 kPa | 715.1
9304 kPa | 715.3
9344 kPa | 715.2
9366 kPa | 715.1
9390 kPa | 715.1
9415 kPa | 715.2
9434 kPa | 715.3
9476 kPa | 715.4
9504 kPa | 715.4
9524 kPa | 715.4
9550 kPa | 715.4
9576 kPa | 715.4
9607 kPa | 715.3
9630 kPa | 715.4
9653 kPa | 715.5
9676 kPa | 715.5
9703 kPa | 715.4
9721 kPa | 715.6
9741 kPa | 715.5
9766 kPa | 715.5
9789 kPa | 715.5
9813 kPa | 715.5
9834 kPa | 715.6
9852 kPa | 715.7
9870 kPa | 715.7
9901 kPa | 715.7
9920 kPa | 715.7
9941 kPa | 715.6
9965 kPa | 715.8
9990 kPa | 715.7
10015 kPa | 715.8
10040 kPa | 715.9
10068 kPa | 715.9
10093 kPa | 715.9
10113 kPa | 715.9
10141 kPa | 715.8
10166 kPa | 715.9
10189 kPa | 715.8
10208 kPa | 715.9
10238 kPa | 716
10264 kPa | 716
10291 kPa | 716
10367 kPa | 716.1
10397 kPa | 716.1
10421 kPa | 716.1
10442 kPa | 716.2
10472 kPa | 716.2
10493 kPa | 716.2
10520 kPa | 716.1
10579 kPa | 716.2
10608 kPa | 716.2
10639 kPa | 716.3
10664 kPa | 716.2
10686 kPa | 716.4
10714 kPa | 716.4
10739 kPa | 716.4
10771 kPa | 716.4
10796 kPa | 716.4
10826 kPa | 716.4
10852 kPa | 716.5
10882 kPa | 716.5
10909 kPa | 716.5
10931 kPa | 716.6
10956 kPa | 716.5
10988 kPa | 716.6
11010 kPa | 716.6
11042 kPa | 716.7
11071 kPa | 716.7
11103 kPa | 716.7
11126 kPa | 716.8
11156 kPa | 716.7
11185 kPa | 716.7
11209 kPa | 716.9
11236 kPa | 716.8
11259 kPa | 716.7
11422 kPa | 717
11448 kPa | 717
11495 kPa | 717
11520 kPa | 717
11538 kPa | 717.1
11560 kPa | 717
11582 kPa | 717
11601 kPa | 717.2
11626 kPa | 717
11645 kPa | 717.1
11670 kPa | 717.2
11695 kPa | 717
11718 kPa | 717.2
11739 kPa | 717.1
11755 kPa | 717.1
11781 kPa | 717.2
11813 kPa | 717.3
11845 kPa | 717.4
11865 kPa | 717.2
11891 kPa | 717.4
11927 kPa | 717.4
11954 kPa | 717.4
11974 kPa | 717.4
12001 kPa | 717.4
12022 kPa | 717.4
12046 kPa | 717.5
12071 kPa | 717.5
12283 kPa | 717.7
12299 kPa | 717.6
12320 kPa | 717.7
12335 kPa | 717.6
12350 kPa | 717.7
12372 kPa | 717.8
12543 kPa | 717.9
12558 kPa | 717.9
12576 kPa | 717.9
12592 kPa | 717.9
12612 kPa | 718
12628 kPa | 717.9
12644 kPa | 717.9
12667 kPa | 717.9
12689 kPa | 718
12714 kPa | 718.1
12739 kPa | 718.1
12755 kPa | 718
12770 kPa | 718
12790 kPa | 718.3
12807 kPa | 718.1
12823 kPa | 718.1
12837 kPa | 718
12936 kPa | 718.2
12949 kPa | 718.2
13023 kPa | 718.3
13043 kPa | 718.3
13073 kPa | 718.3
13090 kPa | 718.3
13112 kPa | 718.3
13128 kPa | 718.4
13145 kPa | 718.3
13160 kPa | 718.4
13180 kPa | 718.4
13197 kPa | 718.5
13215 kPa | 718.4
13228 kPa | 718.4
13244 kPa | 718.4
13258 kPa | 718.4
13272 kPa | 718.4
13285 kPa | 718.4
13303 kPa | 718.6
13314 kPa | 718.5
13328 kPa | 718.5
13346 kPa | 718.4
13361 kPa | 718.4
13379 kPa | 718.4
13395 kPa | 718.6
13413 kPa | 718.5
13429 kPa | 718.6
13443 kPa | 718.6
13457 kPa | 718.6
13476 kPa | 718.7
13496 kPa | 718.6
13510 kPa | 718.6
13531 kPa | 718.5
13547 kPa | 718.7
13565 kPa | 718.7
13587 kPa | 718.7
13601 kPa | 718.6
13622 kPa | 718.7
13639 kPa | 718.7
13660 kPa | 718.8
13677 kPa | 718.8
13699 kPa | 718.8
13715 kPa | 718.9
13732 kPa | 718.8
13753 kPa | 718.9
13770 kPa | 718.9
